Data reported in article PMC8752738, “A propolis-derived small molecule ameliorates metabolic syndrome in obese mice by targeting the CREB/CRTC2 transcriptional complex” (Nature Communications, 2022).
Several values for one entry are separate records, joined by “and”; a condition that tells them apart may be missing. Equal entries are not always repeated.

Assays:
[1] = system: CREB phosphorylation, CRTC2 dephosphorylation; experiment: Immunoblotting/immunostaining of P-CREB and CRTC2 in primary hepatocytes; format: cell-based, mouse; details: for Relative P-CREB/CREB density: Supp. Fig.10 c, individual replicates
Description: Immunoblotting and immunoprecipitation assays were performed as previously described, with antibodies recognizing CREB, Ser133-P-CREB, AMPK, P-AMPK, AKT, P-AKT (Cell Signaling), PGC-1α (Merck), CRTC2 (Calbiochem), PCK1 (Santa Cruz), SREBP1 (Santa Cruz), SREBP2 (BD), HA (Convance), LXRα (Santa Cruz), FLAG (Sigma), GST (Covance), HIS (Abmart), GAPDH (AOGMA), α-TUBULIN (Abmart), β-ACTIN (Abmart), and other antibodies (Supplementary Table 3). For immunostaining assays, primary cultured hepatocytes seeded on coverslips were fixed with 4% paraformaldehyde for 20 min, permeabilized with 0.3% Triton X-100 in PBS, and then blocked by 5% normal goat serum and 0.3% Triton X-100 in PBS, followed by incubation with anti-CREB (1:1000), anti-P-CREB (1:1000), or anti-HA (1:3000) antibodies for 1 h at 4 °C. Slides were then washed, and after washing, slides were incubated with fluorochrome-conjugated secondary antibodies (Invitrogen). Slides were then washed and mounted with Vectashield mounting media containing 4, 6-diamidino-2-phenylindole (DAPI).

mouse Lxra promoter = experiment: Truncated Lxra-LUC reporter in HEK293T; format: cell-based; details: for Relative luciferase reporter activity of mouse LXRa promotor deletion series, group mean (Mean 2) / Relative luciferase reporter activity of mouse LXRa promotor deletion series, group mean (Mean 1) / Relative luciferase reporter activity of mouse LXRa promotor deletion series: APC 10uM; for Relative luciferase reporter activity of mouse LXRa promotor deletion series: individual replicates
Description: Fig. 7 APC inhibits SREBP1 expression via the CRE-LXRα-LXRE axis. a Quantitative PCR analysis of hepatic expressions of Lxra, Ppra, Pprg, Rxra in DIO mice, which were continuously i.p. injected with control vehicle (VEH) or APC (20 mg/kg) with indicated doses one time daily for 5 weeks (n = 6 per group). One of two independent experiments is shown here. Data are represented as mean ± SEM. *P < 0.05; **P < 0.01; P values were determined by two-way ANOVA followed Bonferroni’s multiple comparisons test. b Immunoblotting analysis of hepatic LXRα and premature SREBP1 protein levels in the livers of DIO mice injected APC for 5 weeks as (a). One of three independent experiments is shown here (left). The relative protein of LXRα, SREBP1, and PPARα normalized by GAPDH is shown as a bar graph (right) (n = 3). Data are represented as mean ± SEM. *P < 0.05; **P < 0.01; P values were determined by two-way ANOVA followed Bonferroni’s multiple comparisons test. c CHIP analysis LXRa and RXRa recruited to the promoter of the mouse Srebf1 (top) gene in primary hepatocytes from wild C57 mice and pretreated APC (10 μM) for 1-h (bottom) (n = 4 per treatment). One of three independent experiments presented here. Data are represented as mean ± SEM. *P < 0.05; **P < 0.01; P values were determined by two-way ANOVA followed Bonferroni multiple comparisons test. d CHIP analysis of CREB and CRTC2 occupancy over the half CRE sites in the Lxra promoter (Top) in primary mouse hepatocytes overexpressing CRTC2, pretreated with APC (10 μM) for 1-h prior to 1-h glucagon stimulation (Gluc, 100 nM) (bottom) (n = 4 per treatment). One of three independent experiments presented here. Data are represented as mean ± SEM. *P < 0.05; **P < 0.01; P values were determined by two-way ANOVA followed Bonferroni’s multiple comparisons test. e Reporter activity of truncated Lxra-LUC reporter. The luciferase reporter was driven by mouse Lxra promoter (−1342) or truncations (−784 and −178) co-transfected with MYC-Creb and FLAG-Crtc2-S171A in HEK293T cells, and pretreated with APC prior to stimulation with FSK (10 nM) for 4-h (n = 3 per treatment). One of three independent experiments presented here. Data are represented as mean ± SEM. *P < 0.05; **P < 0.01; P values were determined by two-way ANOVA followed Bonferroni’s multiple comparisons test. f Quantitative PCR analysis of the expression of CRTC2, Lxra, Srebf-1c, and Srebf-2, in primary hepatocytes, which were infected by LV-Crtc2-S171A or control and incubated with APC (10 μM) for 8-h (n = 3 per treatment). One of three independent experiments presented here. Data are represented as mean ± SEM. *P < 0.05; **P < 0.01; P values were determined by two-way ANOVA followed Bonferroni’s multiple comparisons test. g Quantitative PCR analysis of Lxra gene expression in the liver of CRTC2-KO mice. Be induced by high-fat diet for 8 weeks, with Crtc2-KO mice and wild-type littermates administered VEH (vehicle control), MET (metformin, 200 mg/kg), or APC (20 mg/kg) for 3 weeks, followed by fasting 8-h before anesthesia (n = 5 per group). Data are represented as mean ± SEM. *P < 0.05; **P < 0.01; P values of Crtc2 gene were determined by unpaired two-tailed t test with Welch’s correction, and P values of Lxra gene were determined by two-way ANOVA followed Bonferroni’s multiple comparisons test. h Immunoblotting analysis of LXRα protein in the liver of these mice as in (g). One of two independent experiments is presented here (top), and the relative concentration of LXRα normalized to ACTIN is shown as a bar graph (bottom). (n = 5 mice per group, two technological repeats represent a composite pool). Data are represented as mean ± SEM. *P < 0.05; **P < 0.01; P values were determined by two-way ANOVA followed Bonferroni’s multiple comparison test. Source data for this figure are provided as source data file.

CC(C)=CCc1cc(C=CC(=O)O)cc(CC=C(C)C)c1O [APC, 3,5-diprenyl-4-hydroxycinnamic acid]
Relative P-CREB/CREB density ([1]; CT (no glucagon), CTRL about 1.0): 1.21 and 1.302 and 1.2292
Relative P-CREB/CREB density ([1]; GLUC (glucagon), CTRL about 2.91): 3.03 and 2.994 and 2.993
CREB phosphorylation induced by glucagon ([1]; primary hepatocytes): very little effect
CRTC2 dephosphorylation or nuclear translocation ([1]; primary hepatocytes, APC 10 μM, glucagon): very little effect
Relative luciferase reporter activity of mouse LXRa promotor deletion series, group mean (Mean 2) (mouse Lxra promoter; -178, CREB/CRTC2-S171A +, Ctrl (no FSK), mean of N=3): 80.85
Relative luciferase reporter activity of mouse LXRa promotor deletion series, group mean (Mean 1) (mouse Lxra promoter; -178, CREB/CRTC2-S171A +, FSK, mean of N=3): 101.4
Lxra-LUC reporter activity, Mean (mouse Lxra promoter; -178 construct, Ctrl (no FSK), mean of N=3, -1342_Ctrl = 100): 80.85
Lxra-LUC reporter activity, Mean (mouse Lxra promoter; -178 construct, FSK, mean of N=3, -178_Ctrl with FSK = 80.5): 101.4
Relative luciferase reporter activity of mouse LXRa promotor deletion series, group mean (Mean 2) (mouse Lxra promoter; -784, CREB/CRTC2-S171A +, Ctrl (no FSK), mean of N=3): 65.74
Relative luciferase reporter activity of mouse LXRa promotor deletion series, group mean (Mean 1) (mouse Lxra promoter; -784, CREB/CRTC2-S171A +, FSK, mean of N=3): 80.88
Lxra-LUC reporter activity, Mean (mouse Lxra promoter; -784 construct, Ctrl (no FSK), mean of N=3, -1342_Ctrl = 100): 65.74
Lxra-LUC reporter activity, Mean (mouse Lxra promoter; -784 construct, FSK, mean of N=3, -784_Ctrl with FSK = 84.79): 80.88
Relative luciferase reporter activity of mouse LXRa promotor deletion series, group mean (Mean 2) (mouse Lxra promoter; -1342, CREB/CRTC2-S171A +, Ctrl (no FSK), mean of N=3): 120.4
Relative luciferase reporter activity of mouse LXRa promotor deletion series, group mean (Mean 1) (mouse Lxra promoter; -1342, CREB/CRTC2-S171A +, FSK, mean of N=3): 140.5
Lxra-LUC reporter activity, Mean (mouse Lxra promoter; -1342 construct, Ctrl (no FSK), mean of N=3, -1342_Ctrl = 100): 120.4
Lxra-LUC reporter activity, Mean (mouse Lxra promoter; -1342 construct, FSK, mean of N=3, -1342_Ctrl with FSK = 265.7): 140.5
Lxrα-luc reporter activity (mouse Lxra promoter; HEK293T, FSK, attenuated when half CRE site −984 deleted): inhibition of Lxrα-luc reporter activity
Relative luciferase reporter activity of mouse LXRa promotor deletion series (mouse Lxra promoter; mLXRa promoter region -178, CREB/CRTC2-S171A +, Ctrl (no FSK)): 68.909
Relative luciferase reporter activity of mouse LXRa promotor deletion series (mouse Lxra promoter; mLXRa promoter region -178, CREB/CRTC2-S171A +, Ctrl (no FSK), unstimulated control): 81.477 and 92.1755
Relative luciferase reporter activity of mouse LXRa promotor deletion series (mouse Lxra promoter; mLXRa promoter region -178, CREB/CRTC2-S171A +, FSK, FSK stimulated): 110.535 and 84.2634 and 109.449
Relative luciferase reporter activity of mouse LXRa promotor deletion series (mouse Lxra promoter; mLXRa promoter region -784, CREB/CRTC2-S171A +, Ctrl (no FSK)): 58.3809
Relative luciferase reporter activity of mouse LXRa promotor deletion series (mouse Lxra promoter; mLXRa promoter region -784, CREB/CRTC2-S171A +, Ctrl (no FSK), unstimulated control): 73.0822 and 65.7554
Relative luciferase reporter activity of mouse LXRa promotor deletion series (mouse Lxra promoter; mLXRa promoter region -784, CREB/CRTC2-S171A +, FSK, FSK stimulated): 83.8052 and 88.4723 and 70.3736
Relative luciferase reporter activity of mouse LXRa promotor deletion series (mouse Lxra promoter; mLXRa promoter region -1342, CREB/CRTC2-S171A +, Ctrl (no FSK)): 97.1063
Relative luciferase reporter activity of mouse LXRa promotor deletion series (mouse Lxra promoter; mLXRa promoter region -1342, CREB/CRTC2-S171A +, Ctrl (no FSK), unstimulated control): 135.223 and 128.99
Relative luciferase reporter activity of mouse LXRa promotor deletion series (mouse Lxra promoter; mLXRa promoter region -1342, CREB/CRTC2-S171A +, FSK, FSK stimulated): 139.251 and 135.05 and 147.302
